Data from patent publication US20040167111A1, “Pharmaceutical preparations for treating side effects during and/or after GnRHa therapy” (priority 1998, published 2004).

Legend:
[1] = test system: female test subjects treated with Decapeptyl-Depot for endometriosis; assay: Clinical study in women with endometriosis under GnRHa therapy (Decapeptyl-Depot); type: in vivo, human
Protocol: Here clinical studies in women with endometriosis are reported.
(§1) The effectiveness of injected Decapeptyl-Depot (Ferring Arzneimittel GmbH, Kiel, Germany) in a dose of 3.2 mg of Triptorelin intramuscularly at intervals of four weeks and 1 to 2 mg of 14α,15α-methylene-1,3,5(10),8-tetraene-3,17α-diol daily, given in the form of a vaginal suppository of 1 mg of 14α,15α-methylene-1,3,5(10),8-tetraene-3,17α-diol each, was tested in fourteen female test subjects aged 22 to 38, who were being treated with Decapeptyl-Depot for endometriosis for at least six months.
The treatment with 14α,15α-methylene-1,3,5(10),8-tetraene-3,17α-diol was begun four weeks after the beginning of GnRHa therapy, that is, at the time of the second Decapeptyl injection.
Hot flashes were recorded by the subjects daily on a control form laid out for a 24-hour day, beginning with the first day of Decapeptyl therapy.
The mean number of hot flashes per 24 hours in weeks 3 and 4 of the GnRHa treatment (that is, before the beginning of the 14α,15α-methylene-1,3,5(10),8-tetraene-3,17α-diol therapy) was assumed to be 100%, for the sake of better comparability. The number of hot flashes during additional therapy with 14α,15α-methylene-1,3,5(10),8-tetraene-3,17α-diol was indicated as a percentage of the starting value. For five subjects, a measurement of skin temperature over 24 hours was done, for the sake of objectivity.
At intervals of four weeks, immediately prior to the injection of Decapeptyl-Depot, blood was drawn to determine LI-I, FSH, prolactin, testosterone, DHEAS, SHBG, free testosterone, estradiol, and progesterone. Blood specimens were also taken for determining a simple blood count, SGOT, SGPT, creatinine, Na, K, Ca, albumin, glucose and CA 125.
For long-term treatment, bone density was monitored at intervals of 6 to 12 months. In seven subjects, trials of withdrawal from 14α,15α-methylene-1,3,5(10),8-tetraene-3,17α-diol over 4 to 8 weeks each were done.

[2] = test system: males with prostate-Ca under GnRHa therapy; assay: Observation in males with prostate-Ca under GnRHa therapy; type: in vivo, human
[3] = test system: seminal vesicles of male rats; assay: Model study in male rats: moisture content of the seminal vesicles after 21 days; type: in vivo
Protocol: (§2) A model study was performed in which both 17β-estradiol and 14α,15α-methylene-1,3,5(10),8-tetraene-3,17α-diol were administered to male rats. The purpose of this study was to compare the extent of the undersirable side effects produced in males (in this case male rats as a model) that are produced by administration of an estrogen, namely 17β-estradiol, and by 14α, 15α-methylene-1,3,5(10),8-tetraene-3,17α-diol, an effective ingredient of the present invention.
(§3) Respective amounts of 17β-estradiol and 14α,15α-methylene-1,3,5(10),8-tetraene-3,17α-diol equivalent to 0.04 mg/kg body weight were administered over a 21 day period to the male rats in corresponding groups of male rats. These amounts were administered daily over the 21 day period to individual male rats subcutaneously. Eight male rats were in each group.
(§4) The moisture content in the prostate and seminal vesicles of each tested male rat was measured at the end of the 21 day test period. The experimental error estimate is shown with the “T” at the top of each bar in the respective bar graphs.

[4] = test system: prostate of male rats; assay: Model study in male rats: moisture content of the prostate after 21 days; type: in vivo
Protocol: as §2, §3, §4

[5] = test system: female test subjects treated with Decapeptyl-Depot for endometriosis; assay: Clinical study in women with endometriosis under GnRHa therapy (Decapeptyl-Depot); type: in vivo, human; remark: listed apart in the source
[6] = test system: test subjects with fibroid tumors of the uterus; assay: Clinical study in women with fibroid tumors of the uterus under GnRHa therapy; type: in vivo, human
Protocol: as §1
Test subjects aged 22 to 46 with fibroid tumors of the uterus were given the same doses.

C[C@]12CCC3=C(CCc4cc(O)ccc43)[C@@]13C[C@H]3C[C@H]2O [14α,15α-methylene-1,3,5(10),8-tetraene-3,17α-diol]
bleeding ([1]; 1 to 2 mg daily as vaginal suppository in addition to Decapeptyl-Depot): No bleeding occurred
values for LH, FSH, prolactin, testosterone, DHEAS, SHBG, estradiol, and progesterone ([1]; 1 to 2 mg daily vaginal suppository in addition to Decapeptyl-Depot): remained low and unchanged
Ca 125 values ([1]; add-on to Decapeptyl-Depot): did not rise
body weight ([1]; add-on to Decapeptyl-Depot): no change
intracyclic bleeding ([1]; add-on to Decapeptyl-Depot): No intracyclic bleeding occurred
liver values, blood count or electrolytes ([1]; add-on to Decapeptyl-Depot): No changes
endometriosis-specific complaints ([1]; during the treatment): did not recur
bone density ([1]; over one year, four subjects monitored): did not change significantly
blood pressure ([1]; subjects with borderline RR (n=4, RR around 140/80)): around 110/70
hot flashes in withdrawal trial ([1]; withdrawal over 4 to 8 weeks, seven subjects): increase in hot flashes, within three weeks back to the starting values
hot flashes tripped by GnRHa therapy [2]: same result
proliferation effect on the seminal vesicles (increase in the moisture content) ([3]; male rats, 0.04 mg/kg body weight subcutaneously daily over 21 days, FIG. 2): no profileration effect
proliferation effect in the prostates (increase in the moisture content) ([4]; male rats, 0.04 mg/kg body weight subcutaneously daily over 21 days, FIG. 1): scarcely any proliferation effect
undesirable estrogen side effects ([4]; male rats, prostate and seminal vesicles, 0.04 mg/kg s.c. daily 21 days): no undesirable estrogen side effects
complaints of undesirable estrogen-related side effects ([5]; all subjects): complaint-free
hot flashes tripped by GnRHa therapy ([5]; treated females, endometriosis or fibroid tumors of the uterus): effectively eliminated
course of the decrease in uterine volume versus subjects not receiving the compound ([6]; Decapeptyl-Depot plus add-on): identical
influence on the effect of the GnRHa therapy on the lower organs ([6]; supplementary treatment): did not influence
uterus size ([6]; within three months, Decapeptyl-Depot plus add-on): 40±10 % of the starting value

C[C@]12CC[C@@H]3c4ccc(O)cc4CC[C@H]3[C@@H]1CC[C@@H]2O [estradiol, 17β-estradiol, reference compound]
proliferation effect on the seminal vesicles (increase in the moisture content) ([3]; rat, in vivo, sc, 0.04 mg/kg): comparatively large proliferation effect
proliferation effect in the prostates (increase in the moisture content) ([4]; rat, in vivo, sc, 0.04 mg/kg): comparatively large proliferation effect
undesirable estrogen side effects ([4]; rat, in vivo, sc, 0.04 mg/kg): estrogen side effects of course result
